Source: EP2368549A1, “Treating hand-foot syndrome and related pathologies using clonidine or its derivatives” (BioAlliance Pharma, priority 2010, dated 2011)

Assays:
[1] = clinical trials of breast or colorectal cancer; cited from earlier work
[2] = system: TNFα; conditions: culture supernatant, 24h after substance P addition; clonidine treatment before and during substance P stimulation (topical formulations 0.05%-1% on the epidermis)
Excerpt: (§1) Human biopsy samples of clinically healthy human skin were obtained from patients undergoing plastic surgery. All patients gave their written informed consent before the surgery has carried out.
(§2) Skin biopsies were cut into 1 cm2 full thickness pieces and washed three times with antibiotics. Subcutaneous fat and lower dermis were mechanically removed. Skin fragments were transferred onto permeable polycarbonate membrane transwells (12 mm diameter, 12 µm pore size) in a well of 12 well plate (as previously described Boisnic S. et al., [1-3]) containing 700µl of defined medium (DMEM, antibiotics, hormones, pituitary extract, FCS). Explants were maintained at the interface between air and medium with the epithelium uppermost and the dermis exposed to the media by diffusion through the porous membrane.
(§3) Cohesion between skin fragments and inserts was obtained with a polyvinylsiloxane addition type silicone elastomer seal (coltène® president) in such a way that no skin retraction or lateral passage of the product towards the dermis was possible.
(§4) The culture was set up for 36 hours in a humidified atmosphere containing 5% CO2 at 37°C, and medium was daily change, culture supernatants were frozen at -80°C until further analysis.
The stimulation of the experimental oral human skin inflammatory process was done by the neuropeptide substance P (SP) [1]. […]

[3] = system: human skin organotypic culture; conditions: histology of papillary and upper reticular dermis, 24h after substance P addition; clonidine treatment before and during substance P stimulation
Excerpt: as §1, §2, §3, §4
At the end of culture all human skin fragments were formalin fixed and paraffin embedded. […]

Structure (SMILES) | overall incidence of HFS [1] | patients reporting a severe form (grade 3) of HFS [1] [%] | proinflammatory cytokines TNFα level [2] | skin oedema [3] | vasodilatation [3]
CCCCCOC(=O)Nc1nc(=O)n([C@@H]2O[C@H](C)[C@@H](O)[C@H]2O)cc1F [capecitabine, N4-pentyloxycarbonyl-5'-deoxy-5-fluorocytidine] | around 50% | 17 |  |  | 
Clc1cccc(Cl)c1NC1=NCCN1 [clonidine, N-(2,6-dichlorophenyl)-4,5-dihydro-1H-imidazol-2-amine] |  |  | decrease | decrease | decrease
